According to paper PMC12333015, “Profiling the Impact of mGlu7/Elfn1 Protein Interactions on the Pharmacology of mGlu7 Allosteric Modulators” (ACS Chemical Neuroscience, 2025):

Tested on: pyramidal cell to SST-IN synapses in the prefrontal cortex
Assay: Ex vivo whole-cell electrophysiology, eEPSCs recorded from SST-INs in prefrontal cortex slices
Assay type: cell-based, mouse
Text: Shown in Figure A are representative traces of eEPSCs recorded from SST-INs in response to 5-pulse stimulation with baseline in black, illustrating the characteristic facilitating nature of pyramidal cell (PYR) to SST-IN synapses.
Transgenic mice (both male and female) expressing tdTomato fluorescent protein in SST-INs were used in this study. They were generated by crossing female homozygous SST-Cre (Sst^tm2.1(cre)Zjh/J, Stock #: 013044, Jackson Laboratories) with male homozygous Ai9 mice (B6;Cg-Gt(Rosa)-26Sor^tm9(CAG‑tdTomato)Hze/J, Stock #: 007909, Jackson Laboratories). All animals were group housed with food and water available ad libitum, kept under a 12 h light/dark cycle with lights on from 6:00 AM to 6:00 PM, and were used for experiments during the light phase. All of the experimental procedures were approved by the Vanderbilt University Animal Care and Use committee and followed the guidelines set forth by the Guide for the Care and Use of Laboratory Animals. […] Whole cell recordings were made from visually identified, fluorescence-labeled SST-INs in layer V of PFC slices under the upright microscope. […] Excitatory postsynaptic currents (EPSCs) were recorded from layer V SST-INs at a holding potential of −80 mV and evoked by electrical stimulation (100 μs duration, applied every 15 s) through a concentric bipolar stimulating electrode placed around 100–150 μm from the recorded cell. The holding potential of −80 mV under voltage clamp is closed to the calculated reversal potential of Cl^– and thus the EPSCs recorded in the present studies had minimal GABAA-mediated component. Electrical stimulation applied near the recorded cell in the cortex presumably activates the local neurons preferentially. […] Data were analyzed using Clampfit 10 (Molecular Devices), Excel (Microsoft), and Prism (GraphPad Software), and presented as mean ± SEM. […]

In the case of O=C(Nc1ccc(Oc2ccc(Cl)cn2)c(Cl)c1)c1ccccn1 [VU0422288], the “effect on eEPSC amplitude” value (10 μM VU0422288 alone, compared to baseline) is reported as “no change in eEPSC amplitude” and the “effect on eEPSCs of combination with L-AP4” value (30 μM L-AP4 + 10 μM VU0422288, compared to L-AP4 alone) is reported as “further depression of eEPSCs”.
